The source made the active and inactive calls. The rule behind the calls is not given here.
System: not listed separately
Experiment: PubChem AID 493099
Details: NIH-3T3 viability with fluconazole, Alamar Blue, 48 h; at 2.6 µM (top of the series)

SMILES | activity change, negative = toxicity
COc1ccc2c(c1)c1nc3n(c(=O)c1n2CC(=O)N1CCC(C)CC1)CCS3 | 18.1% (inactive)

Same assay, conditions: NIH-3T3 viability with fluconazole, Alamar Blue, 48 h; at 26 µM (top of the series)

SMILES | activity change, negative = toxicity
CNC(=O)Cn1nc(-c2ccccc2)c2ccccc21 | -11.1% (inactive)
O=C(C1CCCCC1)N1CCN(c2ccccn2)CC1 | -19.3% (inactive)
CCN(CC)C(=O)Cn1c2ccccc2c2nc3n(c(=O)c21)CCS3 | -27% (inactive)
COC(=O)Cn1nc(C)c2ccccc21 | -5.29% (inactive)
O=c1c2[nH]c3ccccc3c2nc2n1CCS2 | -21.3% (inactive)
O=C(Cn1c2ccccc2c2nc3n(c(=O)c21)CCCS3)c1ccc(F)cc1 | -8.47% (inactive)
COC(=O)Cn1nc(-c2ccccc2)c2ccccc21 | -16.9% (inactive)
CCCNC(=O)Cn1nc(-c2ccccc2)c2cc(Cl)ccc21 | -7.48% (inactive)
Cc1ccnc(N2CCN(C(=O)c3ccc(Cl)cc3)CC2)c1 | -11.8% (inactive)
COc1cccnc1N1CCN(C(=O)c2ccc(Cl)cc2)CC1 | -12.3% (inactive)
N#Cc1ccc(N2CCN(C(=O)c3ccc(Cl)cc3)CC2)nc1 | -15.6% (inactive)
CCCNC(=O)Cn1nc(-c2ccccc2)c2ccccc21 | -5.82% (inactive)
O=c1c2[nH]c3ccc(F)cc3c2nc2n1CCS2 | 7.11% (inactive)
CCOC(=O)c1c2ccccc2nn1Cc1ccc(Cl)cc1 | 3.93% (inactive)
Cc1ccc(C(=O)N2CCN(c3ccccn3)CC2)cc1 | 5.98% (inactive)
CC1CCN(C(=O)Cn2c3ccc(F)cc3c3nc4n(c(=O)c32)CCCS4)CC1 | -15.8% (inactive)
O=C(Cn1c2ccc(F)cc2c2nc3n(c(=O)c21)CCS3)N1CCCCCC1 | -19.1% (inactive)
O=C(O)c1nn(Cc2ccc(Cl)cc2)c2ccccc12 | -9.65% (inactive)
O=C(c1ccc(Cl)cc1)N1CCN(c2nc3ccccc3s2)CC1 | -24% (inactive)
COC(=O)Cn1nc(-c2ccccc2)c2cc(Cl)ccc21 | -7.62% (inactive)
Cc1cccc(N2CCN(C(=O)c3ccc(Cl)cc3)CC2)n1 | -19.6% (inactive)
O=C(O)c1c2ccccc2nn1Cc1ccc(Cl)cc1 | -7.54% (inactive)
O=C(Cn1nc(C(=O)N2CCCCC2)c2ccccc21)N1CCOCC1 | -2.32% (inactive)
O=C(c1ccccc1Cl)N1CCN(c2ccccn2)CC1 | -7.93% (inactive)

SMILES | activity change, negative = toxicity
COC(=O)Cn1c(-c2ccccc2)nc2ccccc21 | -4.41% (inactive)
COCCC(=O)N1CCN(c2ccccn2)CC1 | -16% (inactive)
O=C(c1ccc(Cl)cc1)N1CCN(c2ccc(C(F)(F)F)cn2)CC1 | -6.38% (inactive)
CCCCC(=O)N1CCN(c2ccccn2)CC1 | -7.03% (inactive)
O=C(Cn1c2ccccc2c2ccncc21)N1CCCCC1 | -31.2% (inactive)
c1ccc(-c2n[nH]c3ccccc23)cc1 | -5.62% (inactive)
COC(=O)Cn1nc(-c2ccc(Cl)cc2)c2ccccc21 | -11% (inactive)
CC1CCN(C(=O)Cn2c3ccccc3c3nc4n(c(=O)c32)CCCS4)CC1 | -25.8% (inactive)
O=C(Cn1nc(-c2ccccc2)c2ccccc21)N1CCc2ccccc2C1 | -10.2% (inactive)
CC1CCN(C(=O)Cn2c3ccccc3c3nc4n(c(=O)c32)CCS4)CC1 | -20.3% (inactive)
Cc1nn(S(C)(=O)=O)c2ccccc12 | -23.9% (inactive)
O=C(Cn1c2ccccc2c2nc3n(c(=O)c21)CCS3)NCCc1ccc(Cl)cc1 | -7.62% (inactive)
COC(=O)Cn1nc(-c2ccc(C)cc2)c2ccccc21 | 0.677% (inactive)
O=C(c1cccc(Cl)c1)N1CCN(c2ccccn2)CC1 | -24.6% (inactive)
COc1ccc(C(=O)N2CCN(c3ccccn3)CC2)cc1 | -22.2% (inactive)
O=C(Cn1c2ccccc2c2nc3n(c(=O)c21)CCS3)N1CCCC1 | -17.5% (inactive)
COc1ccc2c(c1)c1nc3n(c(=O)c1n2CC(=O)N1CCC(Cc2ccccc2)CC1)CCS3 | -12% (inactive)
O=C(Cn1c2ccc(F)cc2c2nc3n(c(=O)c21)CCS3)N1CCCC1 | -34% (inactive)
O=C(c1ccc(Cl)cc1)N1CCN(c2ncccc2C(F)(F)F)CC1 | -21.5% (inactive)
N#Cc1cccnc1N1CCN(C(=O)c2ccc(Cl)cc2)CC1 | 6.33% (inactive)
CCOC(=O)c1nn(Cc2ccc(Cl)cc2)c2ccccc12 | -28.4% (inactive)
CC(C)C(=O)N1CCN(c2ccccn2)CC1 | 7.76% (inactive)
N#Cc1ccc(C(=O)N2CCN(c3ccccn3)CC2)cc1 | 4.67% (inactive)
O=C(O)Cn1nc(-c2ccccc2)c2ccccc21 | -27.1% (inactive)

System: NIH-3T3 viability with fluconazole, Alamar Blue, 48 h
Experiment: PubChem AID 493099
Details: not given

SMILES | AC50
CCN(CC)C(=O)Cn1c2ccccc2c2nc3n(c(=O)c21)CCS3 | > 26 µM (inactive)
Cc1ccc(N2CCN(C(=O)c3ccc(Cl)cc3)CC2)nc1 | > 26 µM (inactive)
O=C(Cn1nc(-c2ccccc2)c2cc(Cl)ccc21)N1CCOCC1 | > 26 µM (inactive)
COc1ccc(NC(=O)Cn2c3ccccc3c3nc4n(c(=O)c32)CCS4)cc1 | 6.04 µM
O=C(Cn1c2ccccc2c2nc3n(c(=O)c21)CCS3)N1CCCC1 | 19.7 µM
